# Read-outs that look alike come from different tables or passages of the source.
# Legend:
# PC-3 [1] = assay: MTT viability assay, PC-3; assay type: cell-based; details: for IC50: MTT, 24 h incubation, mean ± standard error
# Experimental: (§1) Using concentrations ranging from 0 to 100 μM against PC-3, SKOV-3, and HeLa cancerogenic cell lines, target compounds 4a–l were assessed for their anticancer activities[53] and compared with the commercially available Vinblastine and Doxorubicin. […] The compounds with the greatest cytotoxic activity against the cancerous cell lines PC-3, SKOV-3, and HeLa were 4a–c, 4g, and 4h. […] We selected the cytotoxic active compounds 4a–c, 4g, and 4h to be evaluated against MCF-7/ADR cancerogenic and HFL-1 and WI-38 non-cancerogenic cell lines (Figs. 7, 8 and Table 1).
# (§2) The tumor cell lines (PC-3, SKOV-3, and HeLa), resistant cell strains (MCF-7/ADR) and the normal cell lines, (HFL-1, WI-38) were obtained from the American Type Culture Collection (ATCC, Rockville, MD, USA).
# (§3) The tumor cell lines were suspended in medium at concentration 5 × 10^4 cells well^−1 in Corning® 96-well tissue culture plates and then incubated for 24 h. The tested compounds with concentrations ranging from 0 to 100 μM were then added into 96-well plates (six replicates) to achieve six different concentrations for each compound. Six vehicle controls with media or 0.5% DMSO were run for each 96 well plate as a control. After incubating for 24 h, the numbers of viable cells were determined by the MTT test[53]. Briefly, the media was removed from the 96 well plates and replaced with 100 μl of fresh culture RPMI 1640 medium without phenol red then 10 μl of the 12 mM MTT stock solution (5 mg of MTT in 1 ml of PBS) to each well including the untreated controls. The 96-well plates were then incubated at 37 °C and 5% CO2 for 4 h. An 85-μl aliquot of the media was removed from the wells, and 50 μl of DMSO was added to each well and mixed thoroughly with the pipette and incubated at 37 °C for 10 min. Then, the optical density was measured at 590 nm with the microplate reader (Sunrise, TECAN, Inc, USA) to determine the number of viable cells and the percentage of viability was calculated as […] where ODt is the mean optical density of wells treated with the tested sample and ODc is the mean optical density of untreated cells. The relation between surviving cells and drug concentration is plotted to get the survival curve of each tumor cell line after treatment with the specified compound. The 50% inhibitory concentration (IC50), the concentration required to cause toxic effects in 50% of intact cells, was estimated from graphic plots of the dose response curve for each concentration.
# SKOV-3 = assay: MTT viability assay, SKOV-3; assay type: cell-based; details: for IC50: MTT, 24 h incubation, mean ± standard error; for times more potency than Doxorubicin, SKOV-3 / times more potency than Vinblastine, SKOV-3: ratio of IC50 values
# Experimental: as §1, §2, §3
# HeLa [2] = assay: MTT viability assay, HeLa; assay type: cell-based; details: 24 h incubation, mean ± standard error
# Experimental: as §1, §2, §3
# MCF-7/ADR = assay: MTT viability assay, resistant MCF-7/ADR; assay type: cell-based; details: for IC50: Homo sapiens, NCI/ADR-RES, MTT, 24 h exposure, mean ± standard error; for activity against MCF-7/ADR cell (in words): with regard to Doxorubicin
# Experimental: as §1, §2, §3
# human fetal lung (HFL-1) = assay: MTT viability assay, normal HFL-1; assay type: cell-based; details: HFL1, normal cell line, 24 h, mean ± standard error
# Experimental: as §1, §2, §3
# [3] = test system: human diploid fibroblasts (WI-38); assay: MTT viability assay, normal WI-38; assay type: cell-based; details: normal cell line, 24 h, mean ± standard error
# Experimental: as §1, §2, §3
# MDA-MB-231 = test system: MDA-MB-231; set-up: method as in PMID 34670333; details: Fig. 5, 9-OMe second generation derivatives; cited from earlier work
# A549 = test system: A549; set-up: method as in PMID 34670333; details: Fig. 5, 9-OMe second generation derivatives; cited from earlier work
# HeLa [4] = test system: HeLa; set-up: method as in PMID 34670333; details: Fig. 5, 9-OMe second generation derivatives; cited from earlier work
# MIA PaCa-2 = test system: MIA PaCa-2; set-up: method as in PMID 34670333; details: Fig. 5, 9-OMe second generation derivatives; cited from earlier work
# RPMI 7951 = test system: RPMI 7951; set-up: method as in PMID 34670333; details: Fig. 5, 9-OMe second generation derivatives; cited from earlier work
# PC-3 [5] = test system: PC-3; set-up: method as in PMID 34670333; details: Fig. 5, 9-OMe second generation derivatives; cited from earlier work
# MCF-7 = test system: MCF-7; set-up: method as in PMID 31586716; details: Fig. 5, 9-Br first generation derivatives; cited from earlier work
# HCT-116 = test system: HCT-116; set-up: method as in PMID 31586716; details: Fig. 5, 9-Br first generation derivatives; cited from earlier work
# HepG-2 = test system: HepG-2; set-up: method as in PMID 31586716; details: Fig. 5, 9-Br first generation derivatives; cited from earlier work
structure (smiles),measurement,setting,value
"Cc1ccc(C2C(C#N)=C(N)Oc3ccc4ccc(O)cc4c32)cc1 (stereo not drawn) [4f, 3-Amino-1-(4-methylphenyl)-9-hydroxy-1H-benzo[f]chromene-2-carbonitrile]",IC50,"PC-3 [1]; Homo sapiens, PC-3",37.2 ± 1.3 µM
same,IC50,"SKOV-3; Homo sapiens, SK-OV-3",35.2 ± 1.3 µM
same,IC50,"HeLa [2]; Homo sapiens, HeLa",33.7 ± 1.3 µM
same,melting point,,258 to 259 °C
"N#CC1=C(N)Oc2ccc3ccc(O)cc3c2C1c1ccc([N+](=O)[O-])cc1 (stereo not drawn) [4h, 3-Amino-1-(4-nitrophenyl)-9-hydroxy-1H-benzo[f]chromene-2-carbonitrile]",IC50,"PC-3 [1]; Homo sapiens, PC-3",0.7 ± 0.4 µM
same,"times more potent than Vinblastine, PC-3","PC-3 [1]; ratio of IC50 values, PC-3",10.7 times
same,IC50,"SKOV-3; Homo sapiens, SK-OV-3",0.6 ± 0.1 µM
same,"times more potency than Doxorubicin, SKOV-3",SKOV-3,1.8 times
same,"times more potency than Vinblastine, SKOV-3",SKOV-3,5.3 times
same,IC50,"HeLa [2]; Homo sapiens, HeLa",0.9 ± 0.4 µM
same,IC50,MCF-7/ADR,19.2 ± 0.7 µM
same,activity against MCF-7/ADR cell (in words),MCF-7/ADR,inactive
same,IC50,human fetal lung (HFL-1),84.9 ± 0.1 µM
same,IC50,[3],79.4 ± 0.1 µM
same,melting point,,262 to 263 °C
COc1ccc2ccc3c(c2c1)C(c1ccc(Cl)c(Cl)c1)C(C#N)=C(N)O3 (stereo not drawn) [compound 10],IC50,MDA-MB-231,8.4 µM
same,IC50,A549,13.6 µM
same,IC50,HeLa [4],12.9 µM
same,IC50,MIA PaCa-2,6.2 µM
same,IC50,RPMI 7951,5.1 µM
same,IC50,PC-3 [5],14.6 µM
COc1ccc2ccc3c(c2c1)C(c1ccc(Br)cc1)C(C#N)=C(N)O3 (stereo not drawn) [compound 6],IC50,MDA-MB-231,7.8 µM
same,IC50,A549,12.7 µM
same,IC50,HeLa [4],11.6 µM
same,IC50,MIA PaCa-2,6.8 µM
same,IC50,RPMI 7951,5.9 µM
same,IC50,PC-3 [5],13.6 µM
"N#CC1=C(N)Oc2ccc3ccc(O)cc3c2C1c1cccnc1 (stereo not drawn) [4k, 3-Amino-9-hydroxy-1-(pyridin-3-yl)-1H-benzo[f]chromene-2-carbonitrile]",IC50,"PC-3 [1]; Homo sapiens, PC-3",10.6 ± 0.5 µM
same,IC50,"SKOV-3; Homo sapiens, SK-OV-3",6.3 ± 0.8 µM
same,IC50,"HeLa [2]; Homo sapiens, HeLa",76.4 ± 0.7 µM
same,melting point,,296 to 297 °C
"N#CC1=C(N)Oc2ccc3ccc(O)cc3c2C1c1ccncc1 (stereo not drawn) [4l, 3-Amino-9-hydroxy-1-(pyridin-4-yl)-1H-benzo[f]chromene-2-carbonitrile]",IC50,"PC-3 [1]; Homo sapiens, PC-3",17.7 ± 0.7 µM
same,IC50,"SKOV-3; Homo sapiens, SK-OV-3",5.1 ± 0.8 µM
same,IC50,"HeLa [2]; Homo sapiens, HeLa",11.5 ± 0.9 µM
same,melting point,,294 to 295 °C
COc1ccc2ccc3c(c2c1)C(c1cc(Cl)ccc1Cl)C(C#N)=C(N)O3 (stereo not drawn) [compound 9],IC50,MDA-MB-231,8.1 µM
same,IC50,A549,8.5 µM
same,IC50,HeLa [4],13.2 µM
same,IC50,MIA PaCa-2,6.8 µM
same,IC50,RPMI 7951,5.7 µM
same,IC50,PC-3 [5],11.5 µM
N#CC1=C(N)Oc2ccc3ccc(Br)cc3c2C1c1cccc(Cl)c1Cl (stereo not drawn) [compound 3],IC50,MCF-7,0.49 µM
same,IC50,HCT-116,640 nM
same,IC50,HepG-2,7590 nM
N#CC1=C(N)Oc2ccc3ccc(Br)cc3c2C1c1cccc(Cl)c1 (stereo not drawn) [compound 1],IC50,MCF-7,45.8 µM
same,IC50,HCT-116,1360 nM
same,IC50,HepG-2,770 nM
COc1ccc2ccc3c(c2c1)C(c1ccc(I)cc1)C(C#N)=C(N)O3 (stereo not drawn) [compound 7],IC50,MDA-MB-231,8.9 µM
same,IC50,A549,13.1 µM
same,IC50,HeLa [4],12.1 µM
same,IC50,MIA PaCa-2,6.2 µM
same,IC50,RPMI 7951,6.5 µM
same,IC50,PC-3 [5],12.9 µM
COc1ccc2ccc3c(c2c1)C(c1ccc(Cl)cc1Cl)C(C#N)=C(N)O3 (stereo not drawn) [compound 8],IC50,MDA-MB-231,7.1 µM
same,IC50,A549,6.8 µM
same,IC50,HeLa [4],7.6 µM
same,IC50,MIA PaCa-2,6 µM
same,IC50,RPMI 7951,5.3 µM
same,IC50,PC-3 [5],8.7 µM
"COc1ccc(C2C(C#N)=C(N)Oc3ccc4ccc(O)cc4c32)cc1 (stereo not drawn) [4g, 3-Amino-1-(4-methoxyphenyl)-9-hydroxy-1H-benzo[f]chromene-2-carbonitrile]",IC50,"PC-3 [1]; Homo sapiens, PC-3",0.9 ± 0.4 µM
same,"times more potent than Doxorubicin, PC-3","PC-3 [1]; ratio of IC50 values, PC-3",1.4 times
same,"times more potent than Vinblastine, PC-3","PC-3 [1]; ratio of IC50 values, PC-3",8.3 times
same,IC50,"SKOV-3; Homo sapiens, SK-OV-3",0.7 ± 0.8 µM
same,"times more potency than Doxorubicin, SKOV-3",SKOV-3,1.6 times
same,"times more potency than Vinblastine, SKOV-3",SKOV-3,4.6 times
same,IC50,"HeLa [2]; Homo sapiens, HeLa",0.9 ± 1.5 µM
same,IC50,MCF-7/ADR,30.5 ± 0.7 µM
same,activity against MCF-7/ADR cell (in words),MCF-7/ADR,inactive
same,IC50,human fetal lung (HFL-1),77.5 ± 0.1 µM
same,IC50,[3],84.5 ± 1.1 µM
same,melting point,,229 to 230 °C
"N#CC1=C(N)Oc2ccc3ccc(O)cc3c2C1c1ccc(Br)cc1 (stereo not drawn) [4e, 3-Amino-1-(4-bromophenyl)-9-hydroxy-1H-benzo[f]chromene-2-carbonitrile]",IC50,"PC-3 [1]; Homo sapiens, PC-3",8.8 ± 1.2 µM
same,IC50,"SKOV-3; Homo sapiens, SK-OV-3",4.8 ± 1.1 µM
same,IC50,"HeLa [2]; Homo sapiens, HeLa",7.9 ± 1.6 µM
same,melting point,,285 to 286 °C
"N#CC1=C(N)Oc2ccc3ccc(O)cc3c2C1c1ccc2c(c1)OCO2 (stereo not drawn) [4j, 3-Amino-1-(benzo[d][1,3]dioxol-5-yl)-9-hydroxy-1H-benzo[f]chromene-2-carbonitrile]",IC50,"PC-3 [1]; Homo sapiens, PC-3",6.6 ± 0.5 µM
same,IC50,"SKOV-3; Homo sapiens, SK-OV-3",3.9 ± 0.6 µM
same,IC50,"HeLa [2]; Homo sapiens, HeLa",2.5 ± 0.2 µM
same,melting point,,260 to 261 °C
N#CC1=C(N)Oc2ccc3ccc(Br)cc3c2C1c1ccc(Cl)c(Cl)c1 (stereo not drawn) [compound 4],IC50,MCF-7,7.61 µM
same,IC50,HCT-116,25000 nM
same,IC50,HepG-2,470 nM
N#CC1=C(N)Oc2ccc3ccc(Br)cc3c2C1c1ccc(Cl)cc1 (stereo not drawn) [compound 2],IC50,MCF-7,9.63 µM
same,IC50,HCT-116,800 nM
same,IC50,HepG-2,1670 nM
"N#CC1=C(N)Oc2ccc3ccc(O)cc3c2C1c1ccc(OCc2ccccc2)cc1 (stereo not drawn) [4i, 3-Amino-1-(4-(benzyloxy)phenyl)-9-hydroxy-1H-benzo[f]chromene-2-carbonitrile]",IC50,"PC-3 [1]; Homo sapiens, PC-3",3.2 ± 1 µM
same,IC50,"SKOV-3; Homo sapiens, SK-OV-3",3.5 ± 0.3 µM
same,IC50,"HeLa [2]; Homo sapiens, HeLa",3.3 ± 0.3 µM
same,melting point,,269 to 279 °C
COc1c(Br)cc(Br)cc1C1C(C#N)=C(N)Oc2ccc3ccc(Br)cc3c21 (stereo not drawn) [compound 5],IC50,MCF-7,3.67 µM
same,IC50,HCT-116,580 nM
same,IC50,HepG-2,710 nM
"CC[C@]1(O)C[C@@H]2CN(CCc3c([nH]c4ccccc34)[C@@](C(=O)OC)(c3cc4c(cc3OC)N(C)[C@H]3[C@@](O)(C(=O)OC)[C@H](OC(C)=O)[C@]5(CC)C=CCN6CC[C@]43[C@@H]65)C2)C1 [Vinblastine, reference compound]",IC50,PC-3 [1],7.5 ± 1.3 µM
same,IC50,SKOV-3,3.2 ± 1.2 µM
same,IC50,HeLa [2],5.7 ± 1.1 µM
"N#CC1=C(N)Oc2ccc3ccc(O)cc3c2C1c1ccc(Cl)cc1 (stereo not drawn) [4d, 3-Amino-1-(4-chlorophenyl)-9-hydroxy-1H-benzo[f]chromene-2-carbonitrile]",IC50,"PC-3 [1]; Homo sapiens, PC-3",8.8 ± 0.7 µM
same,IC50,"SKOV-3; Homo sapiens, SK-OV-3",35.6 ± 0.4 µM
same,IC50,"HeLa [2]; Homo sapiens, HeLa",21.9 ± 1.1 µM
same,melting point,,285 to 286 °C
